# Test results as given in paper PMC6450895, “A fungal substrate mimicking molecule suppresses plant immunity via an inter-kingdom conserved motif” (Nature Communications, 2019).
# Entries after “also recorded” stand apart in the source; their conditions may differ.
# What was measured:
# [1] = tested on: apoplastic PLCPs of barley; assay: Apoplastic PLCP activity in SA-treated barley; assay type: in vivo; conditions: Supplementary Fig. 9
# [2] = tested on: proteases of maize apoplastic fluid processing UmPit2; assay: Effect of protease inhibitors on processing of UmPit2 in maize apoplastic fluid; assay type: biochemical; conditions: apoplastic fluid preincubated with inhibitor 10 min; 0, 15, 30 min
# Protocol: Fig. 5 PLCPs cleave UmPit2 in the apoplast. a Input used to perform inhibitory test of Pit2 stability. Heterologous expressed UmPit2 and maize AF at different time points during the experiment. b Addition of E-64 stabilizes Pit2 degradation. Four inhibitors for main classes of proteases: E-64 for cysteine proteases, DCI for serine hydrolases, EDTA for metalloproteases and Pepstatin A for aspartic proteases were preincubated with maize AF for 10 min. Pit2 degradation was analyzed over time (0, 15 and 30 min) using SyproRuby staining. c Inhibition of cysteine proteases stabilizes Pit2 in the apoplast. Maize AF was coincubated with a mix of inhibitors containing DCI [10 µM], EDTA [1 mM] and Pepstatin A [10 µM] (Inh. Mix) with or without E-64 [10 µM]. As a control the noninhibitor sample containing DMSO is shown. d Fractionation of SA-treated apoplastic fluid by anion-exchange chromatography. […] F-24 was preincubated with 10 µM E-64 or DMSO followed by addition of purified UmPit2. Samples were incubated for 0, 15 and 30 min and analyzed by gel electrophoresis using SyproRuby. f UmPit2 is processed at similar rates as an endogenous maize substrate. UmPit2 as well as the endogenous maize PLCP substrate Prozip11 were heterologous expressed in E-coli. 3.2 µM proteins were coincubated with F-24 pretreated with inhibitor mix (Inh. mix) in the presence or absence of E-64. Processing of Prozip11 and UmPit2 has been monitored over time. Samples were analyzed by gel electrophoresis and stained with SyproRuby for visualization. As a control purified proteins as well as F-24 were loaded on gel (right gel). DMSO dimethyl sulfoxide, DCI 3,4-dichloroisocoumarin
# (§1) Approximately 41 µg/ml heterologous expressed UmPit2 and UhPit2 proteins (concentration calculated with the previously described semi-quantitative approach based on SyproRuby) were incubated with or without apoplastic fluids (ca. 200 µg/ml) over time. Reaction was stopped by adding 2× SDS-gel loading buffer) and samples were analyzed by gel electrophoresis and SyproRuby staining (Invitrogen, Paisley, UK). Inhibition of apoplastic fluids containing specific inhibitors was performed as described in the main text. E-64 and pepstatin A were diluted in DMSO at a desired concentration. DCI was diluted in dimethyl formamide. All compounds have been purchased by Sigma-Aldrich (Taufkirchen, Germany). Stability experiments using F-24 were performed using ca. 1.4 µg/µl of the fraction and 3.2 µM of heterologous expressed UmPit2 or […].
# [3] = tested on: PLCPs of fractionated maize apoplastic fluid; assay: PLCP activity of anion-exchange fractions, substrate Z-Phe-Arg-AMC; assay type: biochemical
# Protocol: Fig. 5 PLCPs cleave UmPit2 in the apoplast. a Input used to perform inhibitory test of Pit2 stability. Heterologous expressed UmPit2 and maize AF at different time points during the experiment. b Addition of E-64 stabilizes Pit2 degradation. Four inhibitors for main classes of proteases: E-64 for cysteine proteases, DCI for serine hydrolases, EDTA for metalloproteases and Pepstatin A for aspartic proteases were preincubated with maize AF for 10 min. Pit2 degradation was analyzed over time (0, 15 and 30 min) using SyproRuby staining. c Inhibition of cysteine proteases stabilizes Pit2 in the apoplast. […] Samples were incubated for 0, 15 and 30 min and analyzed by gel electrophoresis using SyproRuby. f UmPit2 is processed at similar rates as an endogenous maize substrate. […] Processing of Prozip11 and UmPit2 has been monitored over time. Samples were analyzed by gel electrophoresis and stained with SyproRuby for visualization. […]
# Activity of PLCPs present in isolated apoplastic fluids was monitored using 10 µM final concentration of the fluorogenic substrate Z-Phe-Arg-7-amido-4-methylcoumarin (Sigma-Aldrich, Taufkirchen, Germany). AMC released (RFU) over time was monitored at 460 nm using a Tecan Infinite M200 PRO plate reader (Tecan Group Ltd., Männedorf, Switzerland). […] The inhibitor control was used to normalize all measurements and obtain a read-out for specific PLCP activity. […]
# [4] = tested on: F-24 (PLCP-enriched fraction of maize apoplastic fluid); assay: Stability/processing in PLCP-enriched fraction F-24 (SDS gel, SyproRuby); assay type: in vitro ADME; conditions: F-24 preincubated with 50 µM / 10 µM E-64
# Protocol: as §1
Molecule,induction of apoplastic PLCPs by SA (in words) [1],effect on processing of UmPit2 in maize apoplastic fluid (in words) [2],PLCP activity of fractions with inhibitor (in words) [3],effect of E-64 on processing by F-24 (in words) [4]
"O=C(O)c1ccccc1O [SA, salicylic acid]",not found in barley,,,
CC(C)C[C@H](NC(=O)[C@H]1O[C@@H]1C(=O)O)C(=O)NCCCCN=C(N)N [E-64],,E-64 stabilizes UmPit2,did not show any activity,stabilized in the fraction preincubated with E-64; also recorded: stabilization of Prozip1 and UmPit2
"O=c1oc(Cl)c(Cl)c2ccccc12 [DCI, 3,4-dichloroisocoumarin]",,Processing of UmPit2 was observed gradually,,
pepstatin-A,,Processing of UmPit2 was observed gradually,,
O=C(O)CN(CCN(CC(=O)O)CC(=O)O)CC(=O)O [EDTA],,Processing of UmPit2 was observed gradually,,
